# Data from US8618169B2, “Derivatives of N-phenylanthranilic acid and 2-benzimidazolone as potassium channel and/or neuron activity modulators” (Ramot at Tel-Aviv University Ltd., priority 2002, dated 2013).
# “And” between values parts separate entries of the source, which are not always exact repeats. Equal values may be shown once.
# Assays:
# [1] = test system: electroshock-induced seizures; test: Maximal electroshock seizure (MES) test in ICR mice; type: in vivo
# Procedure: All animals were treated in accordance with the Guide for the Care and Use of Laboratory Animals as adopted and promulgated by the U.S. National Institutes of Health. The procedures followed for experimentation and maintenance of the animals were approved by the animal research ethics committee of Tel Aviv University and in accordance with the Guide for the Care and Use of Laboratory Animals (1996. National Academy of Sciences, Washington D.C). […] electroshock were induced in adult mice by means of two transcorneal electrodes delivering an alternative current of 50 mA at 60 Hz for 0.2 sec using rodent shocker (Hugo Sachs Electronik, type 221). […] The tested compounds were dissolved in 0.9% saline were administered intraperitoneally either 30 minutes or 2 hours before the electroshock was performed. Animals failing to show tonic hind limb extension were scored as protected and were expressed in percentage.
# Five groups of 10 ICR mice each received intraperitoneally saline (control) or meclofenamic acid (Compound 1) at 25 mg/kg, 50 mg/kg, 100 mg/kg and 150 mg/kg and were subjected 30 minutes later to an electric shock (50 mA, 0.2 second duration, 60 Hz).
# In view of the strong depressing activity of Compound 6 on cortical neurons, the anticonvulsant activity in mice subjected to seizures produced by electroshock was examined, using the MES test described above. Compound 6 dissolved in saline was injected intraperitoneally (in a volume of 10 ml/kg) at doses ranging from 6 mg/kg to 20 mg/kg to ICR adult mice and its anticonvulsant activity was compared with saline. Twenty minutes after drug administration, seizures were produced by electroshock (50 mA, 0.2 second duration, 60 Hz).
# rat cortical neurons = test: Evoked and spontaneous action potential activity of cultured rat cortical neurons, current-clamp; type: cell-based
# KCNQ2/3 channels = target: T1, KCNQ2/3 channels (Homo sapiens, UniProt O43525+O43526); test: KCNQ2/3 current in transfected CHO cells, whole-cell patch-clamp; type: cell-based
# T1 construct: expressed in transfected cells; host or cells: CHO cells
# COX (Cyclooxygenase) = test: COX activity assay in C-26 cells (PGE2 radioimmunoassay); type: cell-based; conditions: for IC50: C-26 cells
# Procedure: C-26 cells were plated on 24-well plates using RPMI medium. Different concentrations of the tested compound were added thereto and the cells were incubated for 30 minutes at 37° C. 30 μM exogenic arachidonic acid was then added and incubation was continued for 20 minutes (37° C.), so as to allow the cells to synthesize PGE2. Indomethacin was added thereafter (10 μM), to stop and completely block the activity. Then, the upper solution was removed into clean 24-wells. To the remained cells 100 μl NaOH (1M) were added to induce cytolysis, and the cells were left for later protein measurement. The solution removed to the new 24-well was used for a radioimmunoassay. The COX activity was estimated by calculating the ng PGE2/mg protein parameter.
# M-current = target: T2, M-current (Rattus norvegicus, UniProt O88943+O88944); test: Native M-current of cultured rat cortical neurons, voltage-clamp; type: cell-based; conditions: cortical neurons, from −50 mV to −70 mV
# T2 construct: the native M-current from pyramidal-like neurons was recorded; endogenous in cells; host or cells: primary cortical neurons from Sprague Dawley rat embryos (E18)
# small DRG neurons = test: Spiking activity of DRG neurons, current-clamp; type: cell-based, mouse; conditions: 15 μM; 75 pA, 400 ms
# Procedure: Dorsal root ganglion (DRG) neurons were dissected from 2-4 days-old ICR mice that were decapitated. DRGs were placed in Hank's balanced saline solution (HBSS) and were prepared by enzymatic dissociation. Briefly, cells were incubated for 30 minutes in 5 mg/ml dispase (Sigma), 2 mg/ml collagenase type 1A (Sigma) and 0.1 mg/ml DNase (Invitrogen/Gibco) in calcium and magnesium-free HBSS, and the ganglia were thereafter mechanically triturated with a firepolished glass Pasteur pipette. The ganglia were then centrifuged for 5 minutes at 80×g and resuspended in DMEM supplemented with 2 mM L-glutamine, 16.5 mM NaCO3, 6 g/l glucose, 5 ml penicillin/streptomycin and 10% fetal calf serum. For electrophysiological recording, dissociated neurons were plated on 13 mm glass coverslips previously coated with poly-D-lysine (1 mg/ml) and laminin (10 μg/ml) and were used after 2-6 days in culture.
# For current measurements in CHO cells, recordings were performed 40 hours following transfection, using the whole-cell configuration of the patch-clamp technique [Hamill et al., Nature 294: 462-464 (1981)]. Signals were amplified using an Axopatch 200B patch-clamp amplifier (Axon Instruments, Foster City, Calif., USA), sampled at 2 kHz and filtered at 800 Hz via a 4-pole Bessel low pass filter. Data were acquired using pClamp 8.1 software (Axon Instruments, Foster City, Calif., USA) and an Elonex Pentium III computer in conjunction with a DigiData 1322A interface (Axon Instruments, Foster City, Calif., USA). The patch pipettes were pulled from borosilicate glass (Warner Instrument. Corp., Hamden, Conn., USA) with a resistance of 2-5 MΩ and were filled with (in mM): 130 KCl, 1 MgCl2, 5 K2ATP, 5 EGTA, 10 HEPES, adjusted with KOH at pH 7.4 (290 mOsm). The external solution contained (in [mM]): 140 NaCl, 4 KCl, 1.8 CaCl2, 1.2 MgCl2, 11 glucose, 5.5 HEPES, adjusted with NaOH at pH 7.4 (310 mOsm). Series resistances (3-13 MΩ) were compensated (75-90%) and periodically monitored. […]
# KCNQ2/Q3 = KCNQ2/Q3 (Homo sapiens, UniProt O43525+O43526); test: Opener potency on KCNQ2/Q3 by leftward shift of half-activation potential (ΔV50) versus concentration, Hill fit; type: cell-based; parameters: expressed in transfected cells
structure (smiles),measurement,setting,value
"O=C(O)Cc1ccccc1Nc1c(Cl)cccc1Cl [Compound 2, diclofenac]",% Protection,"[1]; 25 mg/kg i.p., 30 minutes before electroshock",10 (10) %
same,% Protection,"[1]; 50 mg/kg i.p., 30 minutes before electroshock, listed as Diclofenac",64 (11) %
same,% Protection,"[1]; 50 mg/kg i.p., 30 minutes before electroshock, listed as diclofenac",64%
same,% Protection,"[1]; 50 mg/kg i.p., 2 hours before electroshock",50 (4) %
same,% Protection,"[1]; 100 mg/kg i.p., 30 minutes before electroshock",92 (12) %
same,% Protection,"[1]; 100 mg/kg i.p., 2 hours before electroshock",83 (6) %
same,% Protection,"[1]; 200 mg/kg i.p., 30 minutes before electroshock",100 (15) %
same,% Protection,"[1]; 200 mg/kg i.p., 2 hours before electroshock",100 (6) %
same,ED50,"[1]; Mus musculus, intraperitoneal, 30 minutes or 2 hours before electroshock, 25-200 mg/kg, read-out: ED50 for suppression of tonic extension induced by MES",43 mg/kg
same,effect on evoked action potentials,rat cortical neurons; 25 μM,no spike could be evoked
same,effect on spontaneous spiking activity,rat cortical neurons; 25 μM,quickly and reversibly depressed
Cc1c(Cl)cccc1Nc1ccccc1C(=O)NCCOCCO [Compound 3],increase of the current amplitude,"KCNQ2/3 channels; 25 μM, train protocol, stepped to −50 mV",up to 299±47%
same,opener action on recombinant KCNQ2/3 channels (in words),KCNQ2/3 channels; CHO cells,potent KCNQ2/3 potassium channel opening properties
same,IC50,COX (Cyclooxygenase),113 nM and 114 nM
O=C(NCCOCCO)c1ccccc1Nc1cccc(C(F)(F)F)c1 [Compound 4],increase of the current amplitude,"KCNQ2/3 channels; 50 μM, stepped from −85 mV to −40 mV",> 1.5 fold
same,increase of the current amplitude,"KCNQ2/3 channels; 50 μM, stepped from −85 mV to −50 mV",more than 4 fold
same,opener action on recombinant KCNQ2/3 channels (in words),KCNQ2/3 channels; CHO cells,potent KCNQ2/3 channel opener
same,negative shift in the threshold of M-current activation,M-current,approximately 20 mV
same,effect on evoked and spontaneous cortical neuron activity,rat cortical neurons,depress
same,effect on spontaneous spiking activity,rat cortical neurons; 20 μM,markedly depressed
same,IC50,COX (Cyclooxygenase),> 30000 nM
Cc1cccc(Nc2ccccc2C(=O)NCCOCCO)c1C [Compound 5],effect on current amplitude,"KCNQ2/3 channels; 15 μM, at −40 and −50 mV",enhances the current amplitude
same,leftward shift in the voltage-dependence of KCNQ2/3 activation,"KCNQ2/3 channels; 25 μM, CHO cells",~8 mV
same,V50 of KCNQ2/3 activation with compound,"KCNQ2/3 channels; 25 μM, CHO cells, control −30.9±4.1 mV",−38.3±1.9 mV
same,effect on deactivation kinetics of KCNQ2/3 channels,KCNQ2/3 channels; CHO cells,slowed down
same,negative shift in the threshold of M-current activation,M-current,approximately 20 mV
same,effect on evoked and spontaneous cortical neuron activity,rat cortical neurons,depress
same,effect on evoked action potentials,rat cortical neurons; 25 μM,reversibly inhibited
same,COX inhibition activity (in words),COX (Cyclooxygenase),do not exhibit COX inhibition activity
same,IC50,COX (Cyclooxygenase),10300 nM
O=C(Cc1ccccc1Nc1c(Cl)cccc1Cl)OCCOCCO [Compound 7],opener action on recombinant KCNQ2/3 channels (in words),KCNQ2/3 channels; CHO cells,potent KCNQ2/3 channel opener
same,negative shift in the threshold of M-current activation,M-current,approximately 20 mV
same,effect on evoked and spontaneous cortical neuron activity,rat cortical neurons,depress
same,effect on evoked and spontaneous spiking activity of cortical neurons,rat cortical neurons; 20 μM,very potent inhibitory activity
same,IC50,COX (Cyclooxygenase),11 nM and 11.7 nM
COCCOCCOC(=O)Cc1ccccc1Nc1c(Cl)cccc1Cl [Compound 8],opener action on recombinant KCNQ2/3 channels (in words),KCNQ2/3 channels; CHO cells,only a weak opener action
same,effect on evoked and spontaneous cortical neuron activity,rat cortical neurons,depress
same,effect on evoked and spontaneous spiking activity of cortical neurons,"rat cortical neurons; low concentrations (10 μM evoked, 5 μM spontaneous)",potent inhibitory activity
CN(CCO)C(=O)Cc1ccccc1Nc1c(Cl)cccc1Cl [Compound 9],opener action on recombinant KCNQ2/3 channels (in words),KCNQ2/3 channels; CHO cells,only a weak opener action
same,effect on evoked and spontaneous spiking activity of cortical neurons,rat cortical neurons; 20 μM,inhibitory activity
"CCn1c(=O)[nH]c2ccccc21 [Compound 10, 1-ethyl benzimidazolone]",increase of the current amplitude,"KCNQ2/3 channels; 100 μM, train protocol, cells stepped to −30 mV",up to 57%
O=C1NC(=O)C(c2ccccc2)(c2ccccc2)N1 [phenyloin],protection from hind limb extension,"[1]; 20 mg/kg intraperitoneal, 30 minutes before electroshock",fully prevented hind limb extension
"CCOC(=O)Nc1ccc(NCc2ccc(F)cc2)cc1N [retigabine, N-(2-amino-4-(4-fluorobenzylamino)-phenyl)carbamic acid ethyl ester]",effect on trains of evoked spikes,small DRG neurons,Very similar results
same,EC50,KCNQ2/Q3,2000 ± 1300 nM
same,Hill coefficient ηH,"KCNQ2/Q3; Hill fit, compound alone",1.20±0.30
same,maximum ΔV50,KCNQ2/Q3; increasing concentrations co-exposed with 25 μM meclofenamic acid,−32±4 mV
CCCC(CCC)C(=O)[O-].[Na+] [sodium valproate],protection from hind limb extension,"[1]; 500 mg/kg intraperitoneal, 30 minutes before electroshock",fully prevented hind limb extension
